Consider 28 molecules from ChEMBL document CHEMBL1201862, “PubChem BioAssay data set” (2004).

The source made the active and inactive calls. Where only a bound is given, the exact number is not on record here.

Assay [1] can be described thus: Luminescence Cell-Based Dose Retest to Confirm Inhibitors of Cancer Stem Cells. [Related pubchem assays (depositor defined):AID2717, AID2721]. The format is functional. To be noted: Homo sapiens.
Assay [2] deals with T1, Replicative DNA helicase DnaB (Mycobacterium tuberculosis, UniProt P9WMR3).
T1 sequence (P9WMR3 whole entry): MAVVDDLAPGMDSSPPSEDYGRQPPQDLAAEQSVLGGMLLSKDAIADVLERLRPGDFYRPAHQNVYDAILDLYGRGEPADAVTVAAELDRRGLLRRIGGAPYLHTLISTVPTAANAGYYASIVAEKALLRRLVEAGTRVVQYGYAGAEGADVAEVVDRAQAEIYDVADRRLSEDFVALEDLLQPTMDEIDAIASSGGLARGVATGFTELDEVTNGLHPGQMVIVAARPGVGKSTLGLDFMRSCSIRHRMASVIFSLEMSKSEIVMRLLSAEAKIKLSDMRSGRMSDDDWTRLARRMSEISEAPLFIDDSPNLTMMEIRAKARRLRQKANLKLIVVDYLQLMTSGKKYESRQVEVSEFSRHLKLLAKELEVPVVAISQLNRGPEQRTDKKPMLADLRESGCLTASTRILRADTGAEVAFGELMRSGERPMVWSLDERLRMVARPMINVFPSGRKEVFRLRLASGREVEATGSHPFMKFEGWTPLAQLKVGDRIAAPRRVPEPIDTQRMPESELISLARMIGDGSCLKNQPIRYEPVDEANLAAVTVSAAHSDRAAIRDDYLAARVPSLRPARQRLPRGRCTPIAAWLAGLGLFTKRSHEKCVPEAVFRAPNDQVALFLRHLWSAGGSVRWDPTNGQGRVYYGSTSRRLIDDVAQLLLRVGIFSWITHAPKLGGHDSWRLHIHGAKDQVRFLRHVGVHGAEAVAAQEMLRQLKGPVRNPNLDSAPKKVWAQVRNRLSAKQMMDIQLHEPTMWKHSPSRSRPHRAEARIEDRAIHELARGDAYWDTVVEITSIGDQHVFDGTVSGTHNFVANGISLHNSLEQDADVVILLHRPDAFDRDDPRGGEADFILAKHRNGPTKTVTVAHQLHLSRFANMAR
Nature of the assay: DnaB intein splicing inhibitors, dose response, biochemical, cell-free fluorescence (AID 449749). The format is functional.

Assay [3] addresses T2, Protein RecA (Mycobacterium tuberculosis, UniProt P9WHJ3).
T2 sequence (P9WHJ3 whole entry): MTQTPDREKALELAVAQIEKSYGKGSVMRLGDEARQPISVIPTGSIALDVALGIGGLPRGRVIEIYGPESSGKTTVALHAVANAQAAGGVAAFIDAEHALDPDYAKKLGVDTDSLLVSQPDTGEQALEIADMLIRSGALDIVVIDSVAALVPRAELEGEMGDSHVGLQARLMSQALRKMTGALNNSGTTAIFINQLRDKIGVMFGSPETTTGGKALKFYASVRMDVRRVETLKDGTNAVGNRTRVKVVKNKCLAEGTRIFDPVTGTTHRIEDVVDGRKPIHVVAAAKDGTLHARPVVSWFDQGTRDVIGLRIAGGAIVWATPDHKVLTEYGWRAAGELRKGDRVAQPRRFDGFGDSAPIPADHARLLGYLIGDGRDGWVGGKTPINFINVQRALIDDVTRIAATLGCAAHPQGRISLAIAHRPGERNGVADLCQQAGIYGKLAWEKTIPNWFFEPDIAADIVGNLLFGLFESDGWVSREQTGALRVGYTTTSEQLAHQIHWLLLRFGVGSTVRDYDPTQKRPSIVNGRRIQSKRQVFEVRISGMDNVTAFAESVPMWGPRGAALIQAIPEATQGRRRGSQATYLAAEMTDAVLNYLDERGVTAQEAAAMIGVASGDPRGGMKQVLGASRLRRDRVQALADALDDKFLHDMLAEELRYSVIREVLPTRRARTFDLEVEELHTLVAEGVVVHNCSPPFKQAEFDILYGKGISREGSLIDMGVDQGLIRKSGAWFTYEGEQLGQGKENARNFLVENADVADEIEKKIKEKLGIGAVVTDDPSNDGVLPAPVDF
The assay can be described thus: Fluorescence Cell-Free Homogeneous Dose Retest to Identify Inhibitors of RecA-Intein Splicing Activity. [Related pubchem assays (depositor defined):AID2097, AID2223, AID489010, AID492950]. The format is functional.

Assay [4] is described as follows: inhibitors of firefly luciferase expression or activity, dose response, H4 neuroglioma cells, luminescence (AID 1990). It is filed as functional, cell-based.
Assay [5] can be described thus: Luminescence Cell-Based Dose Response HTS to Identify Inhibitors of 5'UTR Stem-Loop Driven Prion Protein mRNA Translation in H4 Neuroglioblastoma Cells. [Related pubchem assays: 1827 (Project Summary), 1813 (Primary HTS)]. It is filed as functional.
The nature of assay [6]: inhibitors of SNCA 5'UTR-driven reporter translation, confirmation, H4 neuroglioma cells, luminescence (AID 1988). The format is functional, cell-based.
Assay [7] has as its target Cytochrome P450 2C19 (Homo sapiens, UniProt P33261). The assay can be described thus: Cytochrome panel assay with activity outcomes. Panel member name: p450-cyp2c19 Compounds with AC50 equal or less than 10 uM are considered active. The format is functional. Conditions: read-out: AC50.
Assay [8] concerns the target Cytochrome P450 3A4 (Homo sapiens, UniProt P08684).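 Also: CYP3A4 tested as one member of a cytochrome P450 panel screen.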
Assay [9] concerns the target Cytochrome P450 2C9 (Homo sapiens, UniProt P11712).
Assay [10] concerns the target T3, Cytochrome P450 1A2 (Homo sapiens, UniProt P05177).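 Also: PubChem cytochrome P450 panel assay, CYP1A2 panel member.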
T3 sequence (P05177 whole entry): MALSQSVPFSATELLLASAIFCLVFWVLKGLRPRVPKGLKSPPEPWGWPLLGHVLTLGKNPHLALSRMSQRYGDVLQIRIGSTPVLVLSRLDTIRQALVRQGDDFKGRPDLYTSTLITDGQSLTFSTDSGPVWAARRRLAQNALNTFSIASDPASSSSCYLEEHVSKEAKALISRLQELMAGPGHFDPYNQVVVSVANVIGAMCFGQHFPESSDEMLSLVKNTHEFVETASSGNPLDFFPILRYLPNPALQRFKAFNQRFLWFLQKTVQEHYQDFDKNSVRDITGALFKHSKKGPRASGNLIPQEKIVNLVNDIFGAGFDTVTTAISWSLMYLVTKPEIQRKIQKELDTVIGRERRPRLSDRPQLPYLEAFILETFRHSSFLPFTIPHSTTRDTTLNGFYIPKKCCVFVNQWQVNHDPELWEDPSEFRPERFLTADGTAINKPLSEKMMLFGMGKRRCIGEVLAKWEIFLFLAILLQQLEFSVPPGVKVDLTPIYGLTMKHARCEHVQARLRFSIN

Assay [11] can be described thus: inhibitors of intracellular T. cruzi replication, confirmation, NIH3T3 host cells, beta-gal luminescence (AID 2044).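 Also: intracellular parasites grown in NIH/3T3 mouse fibroblasts as host cells; luminescent beta-galactosidase reporter signal from transgenic T. cruzi replicating inside host cells; inhibitors lower the luminescence signal.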 It is filed as functional, cell-based.
A short description of assay [12]: cytotoxicity toward NIH3T3 fibroblasts, dose response, counter-screen, cell-based, ATP luminescence, mouse fibroblasts (AID 2010).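 Also: cells exposed to compound for about 90 hours before reading.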 The format is functional. (In general: A counterscreen serves to expose hits that act by an unwanted route or on another target.)
The test system of assay [13] is Streptococcus sp. 'group A'. Nature of the assay: growth inhibition of control SK(-) GAS strain, dose response, counter-screen for streptokinase expression inhibitor project, luminescence, kanamycin, BacTiterGlo, confirmation (AID 1900). It is filed as functional, organism-based.
The subject of assay [14] is Streptococcus. The assay can be described thus: Group A Streptococcus viability loss, dose response, counter-screen for streptokinase expression inhibitor project, luminescence, BacTiterGlo (AID 1915).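 Also: potency for reduction of bacterial viability or growth.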 The format is functional, organism-based.

Chain of Cytochrome P450 3A4 (P08684 whole entry): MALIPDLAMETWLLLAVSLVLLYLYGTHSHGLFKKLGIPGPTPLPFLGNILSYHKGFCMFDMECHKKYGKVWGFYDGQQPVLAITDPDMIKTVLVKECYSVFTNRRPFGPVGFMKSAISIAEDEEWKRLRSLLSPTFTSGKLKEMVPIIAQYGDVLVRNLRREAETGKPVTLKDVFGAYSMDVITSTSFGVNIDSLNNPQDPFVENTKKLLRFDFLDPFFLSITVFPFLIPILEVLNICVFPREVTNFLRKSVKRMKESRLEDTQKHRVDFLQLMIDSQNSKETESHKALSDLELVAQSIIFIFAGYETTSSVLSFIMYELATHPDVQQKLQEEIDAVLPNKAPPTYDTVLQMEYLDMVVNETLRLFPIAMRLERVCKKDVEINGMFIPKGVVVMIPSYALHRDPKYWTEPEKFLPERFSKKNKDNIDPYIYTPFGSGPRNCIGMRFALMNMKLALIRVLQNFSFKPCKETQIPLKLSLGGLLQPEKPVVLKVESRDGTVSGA
Chain of Cytochrome P450 2C9 (P11712 whole entry): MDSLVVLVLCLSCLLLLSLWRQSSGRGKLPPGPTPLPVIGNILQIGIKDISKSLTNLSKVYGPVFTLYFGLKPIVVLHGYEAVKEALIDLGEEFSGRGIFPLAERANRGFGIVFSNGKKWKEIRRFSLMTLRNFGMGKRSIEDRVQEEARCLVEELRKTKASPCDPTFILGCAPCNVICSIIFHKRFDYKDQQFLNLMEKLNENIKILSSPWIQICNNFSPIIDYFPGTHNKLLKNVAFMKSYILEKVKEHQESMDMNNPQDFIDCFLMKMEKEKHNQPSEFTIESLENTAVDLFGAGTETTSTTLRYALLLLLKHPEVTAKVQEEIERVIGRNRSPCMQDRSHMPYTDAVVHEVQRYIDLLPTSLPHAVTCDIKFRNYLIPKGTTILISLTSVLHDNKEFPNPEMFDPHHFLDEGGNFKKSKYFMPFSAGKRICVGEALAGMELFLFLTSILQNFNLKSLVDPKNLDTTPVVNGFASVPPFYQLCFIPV
Chain of Cytochrome P450 2C19 (P33261 whole entry): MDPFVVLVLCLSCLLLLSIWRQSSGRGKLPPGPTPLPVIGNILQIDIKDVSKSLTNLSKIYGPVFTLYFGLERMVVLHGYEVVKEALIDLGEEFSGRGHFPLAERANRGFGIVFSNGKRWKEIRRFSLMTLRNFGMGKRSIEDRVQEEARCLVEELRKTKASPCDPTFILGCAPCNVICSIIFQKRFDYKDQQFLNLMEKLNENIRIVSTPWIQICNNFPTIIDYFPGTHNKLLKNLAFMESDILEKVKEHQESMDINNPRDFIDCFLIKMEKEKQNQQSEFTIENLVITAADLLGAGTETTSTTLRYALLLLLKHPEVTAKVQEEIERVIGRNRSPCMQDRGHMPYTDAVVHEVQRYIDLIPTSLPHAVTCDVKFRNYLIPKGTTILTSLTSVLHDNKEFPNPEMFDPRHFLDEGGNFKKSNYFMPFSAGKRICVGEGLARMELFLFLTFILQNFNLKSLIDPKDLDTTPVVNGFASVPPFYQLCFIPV

For the molecule `Cc1ccc(Nc2nc(N)c([N+](=O)[O-])c(NCc3ccco3)n2)cc1C`, the AC50 in assay [1] was 6.48 µM (active).

As for `Cn1cnc([N+](=O)[O-])c1Sc1ccc(C(C)(C)C)cc1`, the AC50 in [2] was 13.6 µM (active). Also, the EC50 in assay [3] was 14.1 µM (active).

As to `Nc1nc(NCCOCCO)nc(NC2CCCCC2)c1[N+](=O)[O-]`, the EC50 in assay [4] was 16.7 µM (active); in assay [5], 0.14 µM (active); in assay [6] it was 17.3 µM (active).

As to `CCOC(=O)C(C#N)C(c1cccnc1)c1c(C)[nH][nH]c1=O` (stereo unspecified), in assay [2], the AC50 was 6.32 µM (active). Moreover, the EC50 in [3] is 1.81 µM (active).

For `COc1ccc(-c2sc3ccc(N4CCOCC4)cc3c2C#CCCO)cc1`, the half-maximal activity concentration (AC50) in [1] is 3 µM (active).

In the case of `CC(=O)c1ccc(Oc2ncnc(N)c2[N+](=O)[O-])cc1`, the EC50 in [4] is > 120 µM (not active); in assay [5], 13.6 µM (active); in assay [6], 11.2 µM (active).

On to `Nc1nc(NCc2ccco2)nc(Nc2ccc(F)cc2)c1[N+](=O)[O-]`, for which the results for the EC50 in assay [4], in assay [5] and in [6] were 35 µM (active), > 120 µM (not active) and > 120 µM (not active), respectively.

As for `COc1ccc(/C=C/c2cc(C(=O)O)c3ccccc3n2)cc1`, the EC50 in assay [4] was 3.67 µM (active); in assay [5], 2.83 µM (active); in assay [6], 6.45 µM (active).

With `N#Cc1nc(Cc2cccc3ccccc23)oc1N1CCCCC1`, the EC50 in [4] was 16.2 µM (active); in [5], > 120 µM (not active); in assay [6], > 120 µM (not active).

Consider `O=C(CCCN1C(=O)/C(=C\c2cccs2)SC1=S)Nc1ccc(O)cc1C(=O)O`, for which, in assay [2], the AC50 is 17.7 µM (active). Also, in assay [3], the EC50 is 12.7 µM (active).

Regarding `Cc1cccc(NC(=O)c2cc(=O)c3ccccc3o2)n1`, the AC50 in assay [7] is 14.1 µM (inconclusive); in [8], 25.1 µM (inconclusive); in assay [9] it was 3.16 µM (inconclusive).

Turning to `CC1CCc2cccc3c2N1c1cc(C#N)c(C#N)cc1O3` (stereo unspecified), the EC50 is 8.54 µM (active) in [4], 88.7 µM (active) in [5] and 33.4 µM (active) in [6].

Turning to `CCCS(=O)(=O)N1CCCC(C(=O)N2CCN(c3ccccc3)CC2)C1` (stereo unspecified), the AC50 is 6.31 µM (inconclusive) in assay [7], 0.00501 µM (inconclusive) in assay [10], 14.1 µM (inconclusive) in assay [8] and 14.1 µM (inconclusive) in assay [9].

Consider `Oc1nc(CN2CCN(c3ccccn3)CC2)nc2c(Br)cc(Br)cc12`, for which, in assay [1], the AC50 is 2.76 µM (active).

With `Cc1cc(N)n(-c2ccc(S(N)(=O)=O)cc2[N+](=O)[O-])n1`, the AC50 in assay [1] was > 195 µM (inactive).

As to `CCOC(=O)c1sc2nc(CC(=O)OC)nc(N3CCN(c4ccc(OC)cc4)CC3)c2c1C`, the EC50 is > 120 µM (not active) in [4]; > 120 µM (not active) in assay [5]; 89.9 µM (active) in [6]; 1.91 µM (active) in [11]; > 60 µM (not active) in assay [12].

Regarding `CC(=O)c1ccc(OC(=O)c2cccs2)cc1`, in [2], the AC50 is 24.3 µM (active). The EC50 in assay [3] is 12.2 µM (active).

Consider `CCOc1c2ccc(C(=O)NCc3ccco3)cc2nn1CC`, for which the AC50 in assay [8] is 31.6 µM (inconclusive); in assay [9] it was 10 µM (inconclusive).

For the molecule `CCCc1n[nH]c2c1C(c1ccccc1OCC)C(C#N)=C(N)O2` (stereo unspecified), the AC50 in assay [2] is 237 µM (active). The EC50 in assay [3] was 9.01 µM (active).

In the case of `C[C@@H]1CN([C@H](C)CO)C(=O)c2cc(NC(=O)Nc3ccc(C(F)(F)F)cc3)ccc2O[C@H]1CN(C)S(=O)(=O)c1ccc(Cl)cc1`, the AC50 in assay [1] is 2.71 µM (active).

Turning to `CC(C)[C@@H]1CC[C@@H](C)c2c1n[nH]c2-c1ccccc1`, the AC50 in assay [1] was 4.99 µM (active).

For the molecule `CCCc1nnc(NC(=O)c2c(O)c3cccc4c3n(c2=O)CCC4)s1`, the EC50 is 99.5 µM (active) in [4]; 2.53 µM (active) in assay [13]; > 120 µM (not active) in [5]; > 120 µM (not active) in assay [6]; 3.1 µM (active) in assay [14].

Turning to `O=C1c2ccccc2C(=O)C12Cc1ccccc1N1CCN(c3ccccc3)CC12` (stereo unspecified), the EC50 in assay [4], in assay [5] and in assay [6] was > 120 µM (not active) each time.

`Cc1ccc(Cl)cc1N1CCN(C(CC(C)C)c2nnnn2CC2CCCO2)CC1` (stereo unspecified): the AC50 in [1] is 0.631 µM (active).

Take `Cc1n[nH]c2c1C(CC(C)C)C(C#N)=C(N)O2` (stereo unspecified): in [2], the AC50 was 13.1 µM (active). Moreover, in assay [3], the EC50 was 3.84 µM (active).

For `COC(=O)Nc1nc(-c2ccccc2)c(C(=O)c2ccc(Cl)cc2)s1`, the values for the EC50 in [4], in assay [5] and in assay [6] were 7.45 µM (active), 7.87 µM (active) and 0.179 µM (active), respectively.

For `CCc1ccc(Nc2nc(N)nc(CSc3nc4ccccc4s3)n2)cc1`, in assay [1], the AC50 is > 195 µM (inactive).

For `CCc1nnc(NC(=O)c2ccc(S(=O)(=O)N(C)Cc3ccccc3)cc2)o1`, the EC50 in [4], in assay [5] and in assay [6] was > 120 µM (not active) in each case.

Broadly, the AC50 is the concentration at which the activity in the assay is half-maximal. The EC50 is the midpoint of the concentration-response curve.
